This passage reports IC50 results from article PMC10850954, “HDAC6/aggresome processing pathway importance for inflammasome formation is context-dependent” (The Journal of Biological Chemistry, 2024).

SMILES strings stand for the structures.

Common to all, as to experiment: In vitro enzymatic assay with purified HDACs
Type in all cases: biochemical

In one assay the target is HDAC5 (Homo sapiens, UniProt Q9UQL6). From the text: (§1) To extend these observations in other cell settings, we next made use of a novel HDAC6 proteolysis targeting chimera (PROTAC) degrader, XY-07-35 ([19]). Treatment of cells with XY-07-35 leads to recruitment of the E3 ligase cereblon (CRBN) to HDAC6, ubiquitination, and subsequent proteasomal degradation of HDAC6 (Fig. 3A).
Chain of HDAC5 (Q9UQL6 whole entry, species assumed): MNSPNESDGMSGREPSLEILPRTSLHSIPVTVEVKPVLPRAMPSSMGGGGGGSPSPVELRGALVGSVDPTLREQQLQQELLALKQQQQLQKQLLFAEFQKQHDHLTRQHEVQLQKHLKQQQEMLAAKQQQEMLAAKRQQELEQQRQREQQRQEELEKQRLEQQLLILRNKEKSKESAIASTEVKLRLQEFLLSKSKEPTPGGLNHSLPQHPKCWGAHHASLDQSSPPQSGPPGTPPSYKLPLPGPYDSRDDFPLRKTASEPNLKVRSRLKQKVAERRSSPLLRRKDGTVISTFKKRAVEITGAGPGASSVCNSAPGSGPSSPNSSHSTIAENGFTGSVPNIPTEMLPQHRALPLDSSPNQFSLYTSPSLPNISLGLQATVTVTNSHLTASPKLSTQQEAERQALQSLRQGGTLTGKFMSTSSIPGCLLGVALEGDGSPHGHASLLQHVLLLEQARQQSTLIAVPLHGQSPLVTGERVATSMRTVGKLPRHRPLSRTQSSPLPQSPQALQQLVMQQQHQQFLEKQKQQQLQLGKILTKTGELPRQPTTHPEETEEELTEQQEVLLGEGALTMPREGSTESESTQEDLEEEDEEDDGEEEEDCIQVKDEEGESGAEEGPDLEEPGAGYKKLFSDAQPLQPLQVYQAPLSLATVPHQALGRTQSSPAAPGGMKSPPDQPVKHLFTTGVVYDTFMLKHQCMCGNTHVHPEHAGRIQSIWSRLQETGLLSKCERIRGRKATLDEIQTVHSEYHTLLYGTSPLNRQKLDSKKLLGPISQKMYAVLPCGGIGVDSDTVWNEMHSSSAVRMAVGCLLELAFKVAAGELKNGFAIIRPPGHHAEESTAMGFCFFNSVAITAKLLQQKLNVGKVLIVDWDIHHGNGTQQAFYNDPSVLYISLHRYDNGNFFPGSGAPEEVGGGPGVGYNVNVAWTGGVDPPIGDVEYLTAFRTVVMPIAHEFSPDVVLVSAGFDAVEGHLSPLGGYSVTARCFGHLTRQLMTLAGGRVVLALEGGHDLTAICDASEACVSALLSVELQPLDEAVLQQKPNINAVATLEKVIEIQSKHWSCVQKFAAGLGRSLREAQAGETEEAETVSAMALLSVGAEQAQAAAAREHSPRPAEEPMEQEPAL
(§2) Figure 3 Effect of […] mediated HDAC6 degradation on NLRP3 inflammasome activation in PBMCs.A, schematic of the mode of action of an HDAC6 degrader. The PROTAC engages both HDAC6 and the E3 ligase cereblon (CRBN), which then leads to ubiquitination and degradation of HDAC6. B, chemical structure of the HDAC6 degrader XY-07-35 and of the negative control XY-07-191 which no longer recruits CRBN. C, in vitro enzymatic assay of compound XY-07-35 on the activity of different HDACs. IC50 for each enzyme is shown. D, XY-07-35 mediated HDAC6 degradation in PBMCs. PBMCs (without or with LPS priming for 4 h) were treated with the indicated compounds and HDAC6 levels were detected by immunoblotting with an anti-HDAC6 antibody. Detection of actin was used as a control for loading. CGP, CGP084892 (Caspase-1 inhibitor); AFN700 is an inhibitor of the NF-kB pathway (IKK inhibitor). E, HDAC6 degradation impact on IL-1β release in PBMCs following MSU 200 μg/ml (5 h), nigericin 2 μM (2 h) or ATP 3 mM (0.5 h) treatment. Cells were first primed with 0.2 ng/ml LPS for 4 h at 37 °C, then treated with MSU, nigericin, and ATP as indicated. The graphs below show the results of three independent experiments using the inducers as indicated. NP3-948 is an inhibitor of the NLRP3 inflammasome. TEXT PRINTED IN THE PICTURE: (C) XY-07-035: Compound IC50 (μM): 1.04 (Target: HDAC1); Compound IC50 (μM): 2.47 (Target: HDAC2); Compound IC50 (μM): 1.44 (Target: HDAC3); Compound IC50 (μM): 5.75 (Target: HDAC5); Compound IC50 (μM): 0.0485 (Target: HDAC6); Compound IC50 (μM): 0.621 (Target: HDAC8) DOUBTS OF THE COPYIST ABOUT THIS PICTURE: XY-07-035, HDAC4, HDAC7 and HDAC9: the table prints only dashes (--), no value, so these rows are left out

The target in a further assay is T1, HDAC6 (Homo sapiens, UniProt Q9UBN7).
T1 sequence (Q9UBN7 1-1215): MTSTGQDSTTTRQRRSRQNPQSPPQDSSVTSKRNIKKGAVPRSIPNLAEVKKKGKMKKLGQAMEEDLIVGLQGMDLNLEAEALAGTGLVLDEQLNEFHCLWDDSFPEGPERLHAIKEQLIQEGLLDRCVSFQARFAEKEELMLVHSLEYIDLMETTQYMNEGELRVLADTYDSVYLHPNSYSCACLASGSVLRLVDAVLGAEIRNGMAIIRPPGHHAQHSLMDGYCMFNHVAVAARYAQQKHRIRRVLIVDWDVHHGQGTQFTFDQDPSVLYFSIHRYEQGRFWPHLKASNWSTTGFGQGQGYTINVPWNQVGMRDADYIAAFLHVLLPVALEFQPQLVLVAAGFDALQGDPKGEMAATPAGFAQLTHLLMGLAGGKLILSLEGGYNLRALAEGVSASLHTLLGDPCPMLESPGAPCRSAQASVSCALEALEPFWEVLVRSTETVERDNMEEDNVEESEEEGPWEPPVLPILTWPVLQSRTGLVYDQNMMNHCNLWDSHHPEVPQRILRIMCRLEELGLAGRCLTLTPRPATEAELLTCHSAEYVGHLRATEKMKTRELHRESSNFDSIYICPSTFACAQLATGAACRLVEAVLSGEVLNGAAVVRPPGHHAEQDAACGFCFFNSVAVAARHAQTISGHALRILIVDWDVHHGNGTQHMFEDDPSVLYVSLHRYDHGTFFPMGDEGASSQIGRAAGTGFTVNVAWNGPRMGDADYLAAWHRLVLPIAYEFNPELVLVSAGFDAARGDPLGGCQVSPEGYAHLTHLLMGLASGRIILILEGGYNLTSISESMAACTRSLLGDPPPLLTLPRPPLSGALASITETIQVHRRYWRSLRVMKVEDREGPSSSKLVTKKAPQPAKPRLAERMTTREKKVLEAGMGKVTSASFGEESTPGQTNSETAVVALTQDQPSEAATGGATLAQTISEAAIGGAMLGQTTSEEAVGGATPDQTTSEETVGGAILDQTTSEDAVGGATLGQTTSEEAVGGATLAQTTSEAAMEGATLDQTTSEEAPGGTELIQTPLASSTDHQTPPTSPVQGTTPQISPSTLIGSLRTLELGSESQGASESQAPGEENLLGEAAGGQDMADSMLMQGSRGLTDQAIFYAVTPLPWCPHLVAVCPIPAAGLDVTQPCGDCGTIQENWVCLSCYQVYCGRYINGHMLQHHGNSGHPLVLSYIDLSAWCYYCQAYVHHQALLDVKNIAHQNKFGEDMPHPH
Text: as §1, §2

A further assay addresses HDAC2 (Homo sapiens, UniProt Q92769).
Text: as §1, §2

For the next assay, the target named is HDAC3 (Homo sapiens, UniProt O15379).
Chain of HDAC3 (O15379 whole entry, species assumed): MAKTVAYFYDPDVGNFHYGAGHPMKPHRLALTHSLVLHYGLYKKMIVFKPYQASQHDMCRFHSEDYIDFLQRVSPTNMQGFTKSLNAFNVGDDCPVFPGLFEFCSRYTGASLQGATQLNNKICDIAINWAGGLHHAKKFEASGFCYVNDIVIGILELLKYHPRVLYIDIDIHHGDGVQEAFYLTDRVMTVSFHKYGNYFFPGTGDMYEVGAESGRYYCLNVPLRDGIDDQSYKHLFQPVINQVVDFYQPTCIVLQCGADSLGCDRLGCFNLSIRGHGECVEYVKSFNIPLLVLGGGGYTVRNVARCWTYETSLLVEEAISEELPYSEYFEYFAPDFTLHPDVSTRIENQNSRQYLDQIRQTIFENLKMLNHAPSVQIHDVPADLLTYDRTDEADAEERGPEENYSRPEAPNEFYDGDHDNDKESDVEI
Chain of HDAC3 (Q9Y618 395-489 partner limits assumed, species assumed): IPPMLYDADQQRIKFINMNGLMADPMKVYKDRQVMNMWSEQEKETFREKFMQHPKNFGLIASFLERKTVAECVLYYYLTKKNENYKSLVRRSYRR
Text: as §1, §2

Another assay has as its system other HDACs. To be noted: other HDACs (than HDAC6 and HDAC8).
Text: as §1, §2

The target in another assay is T2, HDAC8 (Homo sapiens, UniProt Q9BY41).
T2 sequence (Q9BY41 1-377): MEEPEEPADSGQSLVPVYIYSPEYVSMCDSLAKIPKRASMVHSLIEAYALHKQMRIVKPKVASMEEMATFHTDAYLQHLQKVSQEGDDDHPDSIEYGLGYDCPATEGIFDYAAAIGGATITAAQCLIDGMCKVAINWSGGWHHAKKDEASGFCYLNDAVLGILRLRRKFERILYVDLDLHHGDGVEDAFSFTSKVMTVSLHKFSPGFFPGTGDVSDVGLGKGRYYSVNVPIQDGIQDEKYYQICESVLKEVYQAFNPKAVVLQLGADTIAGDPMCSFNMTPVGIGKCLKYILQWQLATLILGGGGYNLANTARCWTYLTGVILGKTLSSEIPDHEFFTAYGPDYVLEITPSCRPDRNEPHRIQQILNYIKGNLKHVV
Text: as §1, §2

The next assay has as its target HDAC1 (Homo sapiens, UniProt Q13547).
Text: as §1, §2

Chain of HDAC1 (Q13547 whole entry, species assumed): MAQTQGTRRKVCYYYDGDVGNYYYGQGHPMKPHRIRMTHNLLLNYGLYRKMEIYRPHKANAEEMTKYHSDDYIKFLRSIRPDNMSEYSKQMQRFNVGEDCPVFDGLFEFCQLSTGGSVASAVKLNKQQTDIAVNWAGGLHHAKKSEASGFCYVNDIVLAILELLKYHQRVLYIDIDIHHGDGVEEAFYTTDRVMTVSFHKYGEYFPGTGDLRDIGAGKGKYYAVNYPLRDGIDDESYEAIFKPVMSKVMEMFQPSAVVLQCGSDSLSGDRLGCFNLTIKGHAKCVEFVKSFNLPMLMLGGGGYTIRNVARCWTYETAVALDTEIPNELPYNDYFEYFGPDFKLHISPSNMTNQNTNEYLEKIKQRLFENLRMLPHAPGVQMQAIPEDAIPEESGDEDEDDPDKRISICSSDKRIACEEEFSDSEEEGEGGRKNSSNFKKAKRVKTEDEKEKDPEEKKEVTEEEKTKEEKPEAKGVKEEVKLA
Chain of HDAC2 (Q92769 whole entry, species assumed): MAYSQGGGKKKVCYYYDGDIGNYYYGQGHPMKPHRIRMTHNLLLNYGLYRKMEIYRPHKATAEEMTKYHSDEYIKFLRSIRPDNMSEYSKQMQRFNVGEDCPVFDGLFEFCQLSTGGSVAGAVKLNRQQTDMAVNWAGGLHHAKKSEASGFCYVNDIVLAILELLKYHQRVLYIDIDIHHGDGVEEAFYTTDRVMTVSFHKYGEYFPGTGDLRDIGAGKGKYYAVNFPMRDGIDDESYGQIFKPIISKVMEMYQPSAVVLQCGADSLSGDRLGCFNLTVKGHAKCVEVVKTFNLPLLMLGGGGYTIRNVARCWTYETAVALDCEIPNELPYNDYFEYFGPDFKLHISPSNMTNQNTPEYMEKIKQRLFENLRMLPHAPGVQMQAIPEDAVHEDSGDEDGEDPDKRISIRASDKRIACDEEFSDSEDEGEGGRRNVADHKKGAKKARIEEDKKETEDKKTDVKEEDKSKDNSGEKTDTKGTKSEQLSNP

Regarding `CN(C(=O)CCCNc1cccc2c1C(=O)N(C1CCC(=O)NC1=O)C2=O)c1ccc(NC(=O)CCCCCCC(=O)NO)cc1` (stereo not shown) [XY-07-35], the IC50 at HDAC5 is 5750 nM; against HDAC6, 48.5 nM; at HDAC2 it was 2470 nM; on HDAC3 it was 1440 nM; in the assay on other HDACs, 1040 to 5750 nM; on HDAC8, 621 nM. For the same compound, the IC50 on HDAC1 stood at 1040 nM.

As a reminder, the IC50 is the concentration that gives 50% inhibition. Low readings indicate greater potency in that assay, high ones weaker potency in that assay.
